Measurements as given in patent US20250345334A1, “METHODS OF TREATING PROSTATE CANCER” (The University of Chicago, priority 2024, published 2025).
“Also recorded” adds a separate entry of the source.

Legend:
CWRR1-Ctl cells [1] = assay: Propidium iodide staining, cell cycle status; format: cell-based, human; conditions: 10 μM ENZ, 0.8 μM MK-1775, 6 days
Protocol: FIGS. 5A-5C. […] (FIG. 5A) Western blotting in CWRR1-Ctl cells cultured in 10% CSS supplemented with R-1881 and treated with: Vehicle (R; 3.5 μM R-1881), and AR-inhibited conditions ([…] R/10 μM ENZ)+/−0.8 μM MK-1775 (WEE1 inhibition) comparing phosphorylated Histone H3 (indicator of cells in M phase) and cleaved PARP (indicator of apoptosis). 3-Actin was blotted as a loading control. […] (FIG. 5C) β-galactosidase activity in CWRR1-Ctl cells treated with either 10 μM ENZ or 10 μM ENZ in combination with 0.8 μM MK-1775 for 6 days. […] Error bars for propidium iodide staining and β-galactosidase activity data represent +/−SEM of 6 replicates tested in each condition, respectively.
WEE1 plays a central role in negatively regulating mitotic phase entry (i.e. the G2/M checkpoint) through phosphorylation of CDK1 [29]. […] PARP-1 is a known substrate of caspase-mediated apoptotic cell death, and cleaved PARP (c-PARP) is a hallmark of apoptosis.

CWRR1-Ctl cells [2] = assay: Proliferation assay, Incucyte S3 live imaging of nuclear GFP, SOX2-positive CWRR1-Ctl cells; format: cell-based, human; conditions: 10% CSS supplemented with R-1881, 150 h (~6 days)
[3] = test system: CDK1, pCDK1, pHistone H3 and cleaved PARP in CWRR1-Ctl cells; assay: Western blotting in CWRR1-Ctl cells; format: cell-based, human; conditions: Western blot
[4] = test system: CWRR1-Ctl xenograft tumors; assay: CRPC xenograft model, time to 4x tumor volume; format: in vivo, athymic nude mice; conditions: 10 mg/kg ENZ, 50 mg/kg MK-1775, daily for 30 days; for median time to endpoint (4x tumor volume relative to volume at randomization): censored at day 31
Protocol: To strengthen the correlation between in vitro and […] studies thereby enhancing translational relevance, an in vivo experiment using a CRPC xenograft model was performed. Following inoculation with CWRR1-Ctl cells, tumor bearing athymic nude mice with a measured tumor volume of ˜150-200 mm^3 were randomized into 4 treatment arms: Vehicle (N=5), 10 mg/kg ENZ (N=8), 50 mg/kg MK-1775 (N=8), and 10 mg/kg ENZ+50 mg/kg MK-1775 (N=8). Mice were treated daily for a period of 30 days. Endpoint for this study was defined as time to 4× tumor volume relative to volume at randomization, representing a lethal tumor burden. Mice who had not reached endpoint at 30 days of treatment were censored at day 31. […] Median time to endpoint for vehicle-, ENZ- and WEE1i-treated mice was 21, 29.5 and 29.5 days, respectively, compared to ENZ+WEE1i-treated mice, which was not reached, as 75% of mice remained without defined progression at 31 days (FIG. 4D).

[5] = test system: E2F1, WEE1, CDK1 and p57 in SOX2KO cells; assay: Western blotting in CWRR1-SOX2KO cells; format: cell-based, human; conditions: Western blot
Protocol: FIGS. 1A-1D. RNA-seq in Control (Ctl) and -SOX2Ko Cells. Ctl or SOX2^KO cells were cultured in 10% charcoal-stripped media with vehicle (R-1881) or ENZ for 72 hrs, then total RNA was recovered for RNA-seq. […] (FIG. 1B) Top gene set pathways enriched by KEGG using Web Gestalt for unique, differentially expressed genes in SOX2^KO cells following ENZ treatment relative to vehicle. Pathways are ranked by strength of significance (P-value). (FIG. 1C) Normalized counts from RNA-seq of representative cell cycle-related genes (CDK1, E2F1, WEE1, CDKN2A, TGFB1, and CDKN1C) across treatment conditions for Ctl and SOX2^KO cells are graphed. Error bars for normalized count data represent +/−SEM for triplicate samples in each condition. Asterisks represent significant differences with the following adjusted p-values: **1E-03 to 1E-09, ***1.0E-10 to 1.0E-19, ****[…] 1.0E-20. (FIG. 1D) Western blots in Ctl and SOX2^KO cells treated with (3.5 μM R-1881) vehicle or ENZ ([…]) for SOX2 and cell cycle proteins encoded by highlighted genes: WEE1, E2F1, CDK1, and p57, confirm relative expression levels observed by RNA-seq. j-Actin was blotted as a loading control. […]

CWRR1-SOX2KO cells = assay: Proliferation assay, Incucyte S3 live imaging of nuclear GFP, CWRR1-SOX2KO cells; format: cell-based, human; conditions: 10% CSS supplemented with R-1881, 150 h
NCI-H660 cells [6] = assay: cells; conditions: Homo sapiens, NCI-H660, 144 h, read-out: % cell viability relative to 10 nM HC treatment
[7] = test system: CDK1, pCDK1 and pHistone H3 in NCI-H660 cells; assay: Western blotting in NCI-H660 cells; format: cell-based, human; conditions: Western blot
NCI-H660 cells [8] = conditions: 6 days

In the case of CNC(=O)c1ccc(N2C(=S)N(c3ccc(C#N)c(C(F)(F)F)c3)C(=O)C2(C)C)cc1F [ENZ, enzalutamide], the “% cells at G2/M cell cycle phase” value (CWRR1-Ctl cells [1]) is reported as 11.95%, the “proliferative capacity relative to vehicle” value (CWRR1-Ctl cells [2]) is reported as “no effect; also recorded: little effect” and the “phosphorylated Histone H3 (pHistone H3)” value [3] is reported as “low”. For the same compound, the “time to endpoint relative to vehicle” value [4] was “no significant differences”, the “median time to endpoint (4x tumor volume relative to volume at randomization)” value [4] was 29.5 days and the “E2F1, WEE1 and CDK1 expression levels” value ([5]; SOX2KO cells upon AR inhibition) was “notably lower”. For the same compound, the p57 expression ([5]; SOX2KO cells with AR antagonism) was “highest expression” and the “proliferative capacity compared to vehicle” value (CWRR1-SOX2KO cells) was “significantly lower”.

C[C@@H]1C[C@H]2[C@@H]3CCC4=CC(=O)C=C[C@]4(C)[C@@]3(F)[C@@H](O)C[C@]2(C)[C@@]1(O)C(=O)CO [DEX, dexamethasone] was tested, and the viability at 0.1 µM (NCI-H660 cells [6]) was 105%.

In the case of C=CCn1c(=O)c2cnc(Nc3ccc(N4CCN(C)CC4)cc3)nc2n1-c1cccc(C(C)(C)O)n1 [MK-1775], the “pHistone H3 relative to DEX and CORT134 treatment alone” value [7] is reported as “increased”, the “proliferative capacity relative to vehicle” value (CWRR1-Ctl cells [2]) is reported as “no significant difference” and the “cleaved PARP (c-PARP)” value [3] is reported as “increased”. The “phosphorylated Histone H3 (pHistone H3)” value [3] was “increases appreciably”, the pCDK1 protein expression ([3]; when WEE1i was present) was “markedly lower” and the “time to endpoint relative to vehicle” value [4] was “no significant differences”. The “median time to endpoint (4x tumor volume relative to volume at randomization)” value [4] was 29.5 days.

With Cn1cc(S(=O)(=O)N2CCC3=Cc4c(cnn4-c4ccc(F)cc4)C[C@]3(C(=O)c3cc(C(F)(F)F)ccn3)C2)cn1 [CORT134, relacorilant] the “cell viability relative to control” value (NCI-H660 cells [8]) was “minimal differences” and the viability at 1 µM (NCI-H660 cells [6]) was 91.8%.
